Data as given in patent publication US20240425517A1, “NOVEL COMPOUND FOR DEGRADATION OF TARGET PROTEIN OR POLYPEPTIDE BY POLYUBIQUITINATION” (PRAZER THERAPEUTICS INC., priority 2021, published 2024).

These compounds were tested against T1, BRD4 proteins (Homo sapiens, UniProt O60885) (assay: Degradation of BRD4 protein in MM.1S cell lines (Western blot densitometry)). Settings: MM.1S cells, 10 μM, 24 hours.
T1 construct: endogenous in cells; host or cells: MM.1S
Assay type: cell-based
Procedure, shortened: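 MM.1S cells in RPMI-1640 with 10% FBS were treated with each degrader at 10 μM for 24 h. RIPA lysates were analysed by SDS-PAGE/Western blot with β-actin as reference, and BRD4 band densitometry was scored as reduction <40% (+), 40-<70% (++) or ≥70% (+++).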

Compound	BRD4 degrading capacity (%)
Cc1sc2c(c1C)C(c1ccc(Cl)cc1)=N[C@@H](CC(=O)NCCCC(=O)Nc1ccc(C(N)=O)c(C#CCN)c1)c1nnc(C)n1-2.Cl [5-59′, (S)-2-(3-aminoprop-1-yn-1-yl)-4-(4-(2-(4-(4-chlorophenyl)-2,3,9-trimethyl-6H-thieno[3,2-f][1,2,4]triazolo[4,3-a][1,4]diazepin-6-yl)acetamido)butanamido)benzamide hydrochloride]	+++ (the degrading capacity was reduced by 70% or more)
Cc1sc2c(c1C)C(c1ccc(Cl)cc1)=N[C@@H](CC(=O)NCCCC(=O)Nc1ccc(C(=O)N(C)C)c(C#CCN)c1)c1nnc(C)n1-2.Cl [5-61′, (S)-2-(3-aminoprop-1-yn-1-yl)-4-(4-(2-(4-(4-chlorophenyl)-2,3,9-trimethyl-6H-thieno[3,2-f][1,2,4]triazolo[4,3-a][1,4]diazepin-6-yl)acetamido)butanamido)-N,N-dimethylbenzamide hydrochloride]	++ (the degrading capacity was reduced by 40% to 70% (exclusive of 70))
COc1ccc(NC(=O)CCCNC(=O)C[C@@H]2N=C(c3ccc(Cl)cc3)c3c(sc(C)c3C)-n3c(C)nnc32)cc1C#CCN [5-63′, (S)—N-(3-(3-aminoprop-1-yn-1-yl)-4-methoxyphenyl)-4-(2-(4-(4-chlorophenyl)-2,3,9-trimethyl-6H-thieno[3,2-f][1,2,4]triazolo[4,3-a][1,4]diazepin-6-yl)acetamido)butanamide trifluoroacetic acid]	++ (the degrading capacity was reduced by 40% to 70% (exclusive of 70))
Cc1ccc(NC(=O)CCCNC(=O)C[C@@H]2N=C(c3ccc(Cl)cc3)c3c(sc(C)c3C)-n3c(C)nnc32)cc1C#CCN.Cl [5-65′, (S)—N-(3-(3-aminoprop-1-yn-1-yl)-4-methylphenyl)-4-(2-(4-(4-chlorophenyl)-2,3,9-trimethyl-6H-thieno[3,2-f][1,2,4]triazolo[4,3-a][1,4]diazepin-6-yl)acetamido)butanamide hydrochloride]	+ (the degrading capacity of each BRD4 degrader was reduced by less than 40%)
Cc1sc2c(c1C)C(c1ccc(Cl)cc1)=N[C@@H](CC(=O)NCCCC(=O)Nc1ccc(C(F)(F)F)c(C#CCN)c1)c1nnc(C)n1-2.Cl [5-75′, (S)—N-(3-(3-aminoprop-1-yn-1-yl)-4-(trifluoromethyl)phenyl)-4-(2-(4-(4-chlorophenyl)-2,3,9-trimethyl-6H-thieno[3,2-f][1,2,4]triazolo[4,3-a][1,4]diazepin-6-yl)acetamido)butanamide hydrochloride]	+++ (the degrading capacity was reduced by 70% or more)
Cc1sc2c(c1C)C(c1ccc(Cl)cc1)=N[C@@H](CC(=O)NCCCC(=O)Nc1ccc(F)c(C#CCN)c1)c1nnc(C)n1-2.Cl [5-77′, (S)—N-(3-(3-aminoprop-1-yn-1-yl)-4-fluorophenyl)-4-(2-(4-(4-chlorophenyl)-2,3,9-trimethyl-6H-thieno[3,2-f][1,2,4]triazolo[4,3-a][1,4]diazepin-6-yl)acetamido)butanamide hydrochloride]	+ (the degrading capacity of each BRD4 degrader was reduced by less than 40%)
COC(=O)c1c(C)cc(NC(=O)CCCNC(=O)C[C@@H]2N=C(c3ccc(Cl)cc3)c3c(sc(C)c3C)-n3c(C)nnc32)cc1C#CCN.Cl [5-78′, methyl (S)-2-(3-aminoprop-1-yn-1-yl)-4-(4-(2-(4-(4-chlorophenyl)-2,3,9-trimethyl-6H-thieno[3,2-f][1,2,4]triazolo[4,3-a][1,4]diazepin-6-yl)acetamido)butanamido)-6-methylbenzoate hydrochloride]	+ (the degrading capacity of each BRD4 degrader was reduced by less than 40%)
Cc1sc2c(c1C)C(c1ccc(Cl)cc1)=N[C@@H](CC(=O)NCCCC(=O)Nc1ccc(-c3cnc(C(F)(F)F)nc3)c(C#CCN)c1)c1nnc(C)n1-2.Cl [5-81′, (S)—N-(3-(3-aminoprop-1-yn-1-yl)-4-(2-(trifluoromethyl)pyrimidin-5-yl)phenyl)-4-(2-(4-(4-chlorophenyl)-2,3,9-trimethyl-6H-thieno[3,2-f][1,2,4]triazolo[4,3-a][1,4]diazepin-6-yl)acetamido)butanamide hydrochloride]	+++ (the degrading capacity was reduced by 70% or more)
COC(=O)c1ccc(NCC2CCN(C(=O)C[C@@H]3N=C(c4ccc(Cl)cc4)c4c(sc(C)c4C)-n4c(C)nnc43)CC2)cc1C#CCN [5-85′, methyl (S)-2-(3-aminoprop-1-yn-1-yl)-4-(((1-(2-(4-(4-chlorophenyl)-2,3,9-trimethyl-6H-thieno[3,2-f][1,2,4]triazolo[4,3-a][1,4]diazepin-6-yl)acetyl)piperidin-4-yl)methyl)amino)benzoate trifluoroacetic acid]	+++ (the degrading capacity was reduced by 70% or more)
COC(=O)c1ccc(NC2CCN(C(=O)C[C@@H]3N=C(c4ccc(Cl)cc4)c4c(sc(C)c4C)-n4c(C)nnc43)CC2)cc1C#CCN [5-86′, methyl (S)-2-(3-aminoprop-1-yn-1-yl)-4-((1-(2-(4-(4-chlorophenyl)-2,3,9-trimethyl-6H-thieno[3,2-f][1,2,4]triazolo[4,3-a][1,4]diazepin-6-yl)acetyl)piperidin-4-yl)amino)benzoate]	+++ (the degrading capacity was reduced by 70% or more)
COC(=O)c1cc(C#CCN)cc(NC(=O)CCCNC(=O)C[C@@H]2N=C(c3ccc(Cl)cc3)c3c(sc(C)c3C)-n3c(C)nnc32)c1.Cl [5-89′, methyl (S)-3-(3-aminoprop-1-yn-1-yl)-5-(4-(2-(4-(4-chlorophenyl)-2,3,9-trimethyl-6H-thieno[3,2-f][1,2,4]triazolo[4,3-a][1,4]diazepin-6-yl)acetamido)butanamido)benzoate hydrochloride]	+ (the degrading capacity of each BRD4 degrader was reduced by less than 40%)
COC(=O)c1ccc(C#CCN)cc1NC(=O)CCCNC(=O)C[C@@H]1N=C(c2ccc(Cl)cc2)c2c(sc(C)c2C)-n2c(C)nnc21.Cl [5-90′, methyl (S)-4-(3-aminoprop-1-yn-1-yl)-2-(4-(2-(4-(4-chlorophenyl)-2,3,9-trimethyl-6H-thieno[3,2-f][1,2,4]triazolo[4,3-a][1,4]diazepin-6-yl)acetamido)butanamido)benzoate hydrochloride]	+++ (the degrading capacity was reduced by 70% or more)
COC(=O)c1nc(NC(=O)CCCNC(=O)C[C@@H]2N=C(c3ccc(Cl)cc3)c3c(sc(C)c3C)-n3c(C)nnc32)ccc1C#CCN.Cl [5-96′, methyl (S)-3-(3-aminoprop-1-yn-1-yl)-6-(4-(2-(4-(4-chlorophenyl)-2,3,9-trimethyl-6H-thieno[3,2-f][1,2,4]triazolo[4,3-a][1,4]diazepin-6-yl)acetamido)butanamido)picolinate hydrochloride]	+++ (the degrading capacity was reduced by 70% or more)
Cc1sc2c(c1C)C(c1ccc(Cl)cc1)=N[C@@H](CC(=O)NCCCCCC(=O)Nc1cccc(C#CCN)c1)c1nnc(C)n1-2.Cl [5-104′, (S)—N-(3-(3-aminoprop-1-yn-1-yl)phenyl)-6-(2-(4-(4-chlorophenyl)-2,3,9-trimethyl-6H-thieno[3,2-f][1,2,4]triazolo[4,3-a][1,4]diazepin-6-yl)acetamido)hexanamide hydrochloride]	++ (the degrading capacity was reduced by 40% to 70% (exclusive of 70))
COC(=O)c1ccc(NC(=O)CCCC(=O)OCC[C@@H]2N=C(c3ccc(Cl)cc3)c3c(sc(C)c3C)-n3c(C)nnc32)cc1C#CCN.Cl [5-106′, methyl (S)-2-(3-aminoprop-1-yn-1-yl)-4-(5-(2-(4-(4-chlorophenyl)-2,3,9-trimethyl-6H-thieno[3,2-f][1,2,4]triazolo[4,3-a][1,4]diazepin-6-yl)ethoxy)-5-oxopentanamido)benzoate hydrochloride]	+ (the degrading capacity of each BRD4 degrader was reduced by less than 40%)
Cc1sc2c(c1C)C(c1ccc(Cl)cc1)=N[C@@H](CC(=O)NCCCCCCCC(=O)Nc1cccc(C#CCN)c1)c1nnc(C)n1-2.Cl [5-107′, (S)—N-(3-(3-aminoprop-1-yn-1-yl)phenyl)-8-(2-(4-(4-chlorophenyl)-2,3,9-trimethyl-6H-thieno[3,2-f][1,2,4]triazolo[4,3-a][1,4]diazepin-6-yl)acetamido)octanamide hydrochloride]	++ (the degrading capacity was reduced by 40% to 70% (exclusive of 70))
Cc1sc2c(c1C)C(c1ccc(Cl)cc1)=N[C@@H](CC(=O)NCCCCCCCCCCC(=O)Nc1cccc(C#CCN)c1)c1nnc(C)n1-2.Cl [5-108′, (S)—N-(3-(3-aminoprop-1-yn-1-yl)phenyl)-11-(2-(4-(4-chlorophenyl)-2,3,9-trimethyl-6H-thieno[3,2-f][1,2,4]triazolo[4,3-a][1,4]diazepin-6-yl)acetamido)undecanamide hydrochloride]	+++ (the degrading capacity was reduced by 70% or more)
Cc1sc2c(c1C)C(c1ccc(Cl)cc1)=N[C@@H](CCOC(=O)CCCCCCCCCC(=O)Nc1cccc(C#CCN)c1)c1nnc(C)n1-2.Cl [5-109′, (S)-2-(4-(4-chlorophenyl)-2,3,9-trimethyl-6H-thieno[3,2-f][1,2,4]triazolo[4,3-a][1,4]diazepin-6-yl)ethyl 11-((3-(3-aminoprop-1-yn-1-yl)phenyl)amino)-11-oxoundecanoate hydrochloride]	+++ (the degrading capacity was reduced by 70% or more)
COC(=O)c1ccc(NC(=O)CCCCCCCCCC(=O)OCC[C@@H]2N=C(c3ccc(Cl)cc3)c3c(sc(C)c3C)-n3c(C)nnc32)cc1C#CCN.Cl [5-110′, methyl (S)-2-(3-aminoprop-1-yn-1-yl)-4-(11-(2-(4-(4-chlorophenyl)-2,3,9-trimethyl-6H-thieno[3,2-f][1,2,4]triazolo[4,3-a][1,4]diazepin-6-yl)ethoxy)-11-oxoundecanamido)benzoate hydrochloride]	++ (the degrading capacity was reduced by 40% to 70% (exclusive of 70))
